“And” between values parts separate entries of the source, which are not always exact repeats. Equal values may be shown once.

This experiment addresses DYRK1A (Homo sapiens, UniProt Q13627). Description: DYRK1A binding assay (DiscoverX KINOMEscan). Particulars: eleven serial three fold dilutions, highest concentration 60 μM. The protocol:
Compounds were tested for DYRK1A binding activity at the commercial kinase profiling service DiscoverX. DiscoverX uses proprietary KINOMEscan® Assay (Fabian et al., “A Small Molecule-kinase Interaction Map for Clinical Kinase Inhibitors,” Nat. Biotechnol. 23(3):329-336 (2005), which is hereby incorporated by reference in its entirety). Compounds were screened for DYRK1A activity at a single concentration of 3 μM in duplicates. Similarly, the dissociation constant Kd of the hit compounds from the initial screening was determined at DiscoverX using their proprietary KINOMEscan® Assay. Kd values are determined using eleven serial three fold dilutions with the highest concentration of 60 μM.
As for `O=c1[nH]c2ccc(-c3cnc(NCc4cccc(Cl)c4)nc3)cc2[nH]1` [Compound 29d, 5-(2-((3-Chlorobenzyl)amino)pyrimidin-5-yl)-1H-benzo[d]imidazol-2(3H)-one], the Kd came out at 280 nM.
Under `O=c1[nH]c2ccc(-c3cnc(NCc4ccccc4)nc3)cc2[nH]1` [Compound 16c] stands 50 nM and 95 nM and 80 nM and 60 nM; under `O=c1[nH]c2ccc(-c3ccc(NCc4ccc(F)cc4)nn3)cc2[nH]1` [Compound 16a, 5-(6-((4-Fluorobenzyl)amino)pyridazin-3-yl)-1H-benzo[d]imidazol-2 (3H)-one], 7000 nM.
Under `O=c1[nH]c2ccc(-c3cnc(NCc4ccccc4Cl)nc3)cc2[nH]1` [Compound 29c, 5-(2-((2-Chlorobenzyl)amino)pyrimidin-5-yl)-1H-benzo[d]imidazol-2(3H)-one] stands 250 nM; under `NC(=O)c1cccc(CNc2ncc(-c3ccc4[nH]c(=O)[nH]c4c3)cn2)c1` [Compound 32a, 3-(((5-(2-Oxo-2,3-dihydro-1H-benzo[d]imidazol-5-yl)pyrimidin-2-yl)amino)methyl)benzamide], 130 nM; under `O=c1[nH]c2ccc(-c3cnc(NCc4ccccc4F)nc3)cc2[nH]1` [Compound 29a, 5-(2-((2-Fluorobenzyl)amino)pyrimidin-5-yl)-1H-benzo[d]imidazol-2(3H)-one], 69 nM.
Under `N#Cc1ccc(CNc2ncc(-c3ccc4[nH]c(=O)[nH]c4c3)cn2)cc1` [Compound 29g, 4-(((5-(2-Oxo-2,3-dihydro-1H-benzo[d]imidazol-5-yl)pyrimidin-2-yl)amino)methyl)benzonnrile] stands 120 nM; under `O=c1[nH]c2ccc(-c3cnc(NCc4ccc(F)cc4)nc3)cc2[nH]1` [Compound 16b, 5-(2-((4-Fluorobenzyl)amino)pyrimidin-5-yl)-1H-benzo[d]imidazol-2(3H)-one], 73 nM and 82 nM and 140 nM; under `O=c1[nH]c2ccc(-c3cnc(NCc4ccc(-c5ccccc5)cc4)nc3)cc2[nH]1` [Compound 29h, 5-(2-(([1,1′-Biphenyl]-4-ylmethyl)amino)pyrimidin-5-yl)-1H-benzo[d]imidazol-2(3H)-one], 1400 nM.
On to `O=c1[nH]c2ccc(-c3cnc(NCc4ccccc4)cn3)cc2[nH]1` [Compound 18c, 5-(5-(Benzylamino)pyrazin-2-yl)-1H-benzo[d]imidazol-2(3H)-one], for which the dissociation constant Kd was 170 nM.
Under `c1ccc(CNc2ncc(-c3ccc4[nH]cnc4c3)cn2)cc1` [Compound 17i, 5-(1H-Benzo[d]imidazol-5-yl)-N-benzylpyrimidin-2-amine] stands 2000 nM; under `O=c1[nH]c2ccc(-c3cnc(NCc4cccc5ccccc45)nc3)cc2[nH]1` [Compound 30d, 5-(2-((Naphthalen-1-ylmethyl)amino)pyrimidin-5-yl)-1H-benzo[d]imidazol-2 (3H)-one], 920 nM.
Under `CC(Nc1ncc(-c2ccc3[nH]c(=O)[nH]c3c2)cn1)c1ccccc1` (centres unmarked) [Compound 29j, 5-(2-((1-Phenylethyl)amino)pyrimidin-5-yl)-1H-benzo[d]imidazol-2(3H)-one] stands 360 nM; under `Cn1c(=O)[nH]c2ccc(-c3cnc(NCc4ccccc4)nc3)cc21` [Compound 17c, 6-(2-(Benzylamino)pyrimidin-5-yl)-1-methyl-1H-benzo[d]imidazol-2(3H)-one], 59 nM; under `Cn1c(=O)[nH]c2ccc(-c3cnc(NCc4ccc(F)cc4)nc3)cc21` [Compound 17d, 6-(2-((4-Fluorobenzyl)amino)pyrimidin-5-yl)-1-methyl-1H-benzo[d]imidazol-2 (3H)-one], 90 nM.
Take `Fc1ccc(CNc2ncc(-c3ccc4[nH]cnc4c3)cn2)cc1` [Compound 17j, 5-(1H-Benzo[d]imidazol-5-yl)-N-(4-fluorobenzyl)pyrimidin-2-amine]: the Kd turned out to be 2300 nM.
In turn, `O=c1[nH]c2ccc(-c3cnc(NCc4cccc(F)c4)nc3)cc2[nH]1` [Compound 29b, 5-(2-((3-Fluorobenzyl)amino)pyrimidin-5-yl)-1H-benzo[d]imidazol-2(3H)-one] returned a Kd of 91 nM.

(Values after US20220064146A1, “KINASE INHIBITOR COMPOUNDS AND COMPOSITIONS AND METHODS OF USE” (ICAHN SCHOOL OF MEDICINE AT MOUNT SINAI, priority 2018, published 2022).)
